Measurements as given in patent US11787799B2 (priority 2015, dated 2023).
Values joined by “and” are separate entries in the source; they are usually repeats but may differ in a detail not shown here. Identical values can stand only once. Like-named read-outs stand apart in the source and are kept apart here.

How the values were obtained:
Yellow Fever Virus = assay: microbe, parasite or virus in culture; format: cell-based; conditions: read-out: EC50 Yellow Fever Virus
Echovirus 7 = assay: microbe, parasite or virus in culture; format: cell-based; conditions: read-out: EC50 ECHO07
Coxsackievirus A9 = assay: microbe, parasite or virus in culture; format: cell-based; conditions: read-out: EC50 COX A9
Echovirus 25 = assay: microbe, parasite or virus in culture; format: cell-based; conditions: read-out: EC50 ECHO25
Echovirus 6 = assay: microbe, parasite or virus in culture; format: cell-based; conditions: read-out: EC50 ECHO06
Coxsackievirus B3-H3 = assay: microbe, parasite or virus in culture; format: cell-based; conditions: read-out: EC50 CVB3-H3
BHK-21 = conditions: read-out: CC50 (Rabies test)
SARS Coronavirus = format: cell-based
Poliovirus 3 = assay: microbe, parasite or virus in culture; format: cell-based; conditions: read-out: EC50 PV3
Coxsackievirus B2 = assay: microbe, parasite or virus in culture; format: cell-based; conditions: read-out: EC50 CVB2
[1] = test system: Enterovirus D68/US/KY/14-18953; assay: Antiviral assay, Enterovirus D68 strain US/KY/14-18953 in RD cells; format: cell-based
Enterovirus D68/Fermon = assay: Antiviral assay, Enterovirus D68 strain Fermon in RD cells; format: cell-based
Rift Valley virus = assay: organism not typed; format: cell-based; conditions: read-out: EC50 Rift Valley virus
[2] = test system: RSV (resp syncitial virus); assay: microbe, parasite or virus in culture; format: cell-based; conditions: read-out: EC50 RSV
Poliovirus 1 = assay: microbe, parasite or virus in culture; format: cell-based; conditions: read-out: EC50 PV1
Influenza A H1N1 = assay: microbe, parasite or virus in culture; format: cell-based; conditions: read-out: EC50 Influenza A H1N1
Punta Toro virus = assay: microbe, parasite or virus in culture; format: cell-based; conditions: read-out: EC50 Punta Toro virus
Powassan = format: cell-based, Powassan virus
Rabies = format: cell-based, rabies virus
Coxsackievirus B4 = assay: microbe, parasite or virus in culture; format: cell-based; conditions: read-out: EC50 CVB4
Japanese Encephalitis = format: cell-based
[3] = test system: Enterovirus D68/US/Mo/14-18949; assay: Antiviral assay, Enterovirus D68 strain US/Mo/14-18949 in RD cells; format: cell-based
Enterovirus 71 = assay: microbe, parasite or virus in culture; format: cell-based; conditions: read-out: EC50 EV71
Echovirus 9 = assay: microbe, parasite or virus in culture; format: cell-based; conditions: read-out: EC50 ECHO09
Vero = conditions: read-out: CC50 (Yellow Fever Virus test)
Coxsackievirus B1 = assay: microbe, parasite or virus in culture; format: cell-based; conditions: read-out: EC50 CVB1
Echovirus 30 = assay: microbe, parasite or virus in culture; format: cell-based; conditions: read-out: EC50 ECHO30
Venezuelan Encephalitis = format: cell-based, Venezuelan encephalitis virus
Chikungunya = format: cell-based, chikungunya virus
Measles = assay: microbe, parasite or virus in culture; format: cell-based; conditions: read-out: EC50 Measles
Coxsackievirus B5 = assay: microbe, parasite or virus in culture; format: cell-based; conditions: read-out: EC50 CVB5
BHK = conditions: read-out: CC50 (Powassan test)
Echovirus 11 = assay: microbe, parasite or virus in culture; format: cell-based; conditions: read-out: EC50 ECHO11
[4] = read-out: CC50 (Rift Valley virus test), with Rift Valley virus MP-12 test
[5] = read-out: CC50 (SARS Coronavirus test), with SARS Coronavirus Urbani test

| Compound | EC50 (Yellow Fever Virus) [µM] | CC50 (MA-104) [µM] | EC50 (Echovirus 7) [µM] | EC50 (Coxsackievirus A9) [µM] | EC50 (Echovirus 25) [µM] | EC50 (Echovirus 6) [µM] | EC50 (Coxsackievirus B3-H3) [µM] | CC50 (HeLa-RW cells) [µM] | CC50 (BHK-21) [µM] | EC50 (SARS Coronavirus) [µM] | EC50 (Poliovirus 3) [µM] | EC50 (Coxsackievirus B2) [µM] | EC50 [1] [µM] | EC50 (Enterovirus D68/Fermon) | EC50 (Rift Valley virus) [µM] | EC50 [2] [µM] | EC50 (Poliovirus 1) [µM] | EC50 (Influenza A H1N1) [µM] | EC50 (Punta Toro virus) [µM] | EC50 (Powassan) [µM] | other results |
| --- | --- | --- | --- | --- | --- | --- | --- | --- | --- | --- | --- | --- | --- | --- | --- | --- | --- | --- | --- | --- | --- |
| CC(C)n1ncc2c(C(=O)Nc3cccc(S(N)(=O)=O)c3)cc(-c3cccs3)nc21 [JX-025] | > 4.8 | > 100 | 2.1 ± 0.6 | 2.1 ± 0.7 | 1.1 | 1.1 ± 0.3 | 0.3 | 50 | 12.2 | > 7.2 | 5 | 1.2 | 0.15 | 0.1 µM and 0.15 µM | > 100 | > 100 | 5 | > 100 | 38 | > 8.9 | CC50 (LLC cells): 25 µM; EC50 (Rabies): > 12.2 µM; EC50 (Coxsackievirus B4): 1.1 ± 0.2 µM; EC50 (Japanese Encephalitis): 0.31 µM; CC50 (RD cells): 50 µM; EC50 [3]: 0.06 ± 0.02 µM; EC50 (Enterovirus 71): 1.3 ± 0.1 µM; CC50 (MDCK): > 100 µM; CC50 (Vero 76; [4]): > 100 µM; CC50 (Vero 76; [5]): 7.2 µM; EC50 (Echovirus 9): 1.2 µM; CC50 (Vero): 4.8 µM; EC50 (Coxsackievirus B1): 1.2 µM; EC50 (Echovirus 30): 0.6 µM; EC50 (Venezuelan Encephalitis): > 0.88 µM; EC50 (Chikungunya): 0.3 µM; EC50 (Measles): 7.1 µM; EC50 (Coxsackievirus B5): 1.2 µM; CC50 (BHK): 8.9 µM |
| CC(C)n1ncc2c(C(=O)Nc3ccc(F)cc3)cc(-c3cccs3)nc21 [JX-017] | > 9.9 | > 100 | 1.3 ± 0.2 | 0.9 ± 0.5 | 1.2 | 1 ± 0.4 | 0.7 ± 0.2 | > 200 | > 100 | > 10 | > 25 | 1 ± 0.3 | 0.5 ± 0.17 | 0.33 ± 0.06 µM | > 52 | 69 | > 25 | > 100 | 12 | 32 | CC50 (LLC cells): > 200 µM; EC50 (Rabies): > 100 µM; EC50 (Coxsackievirus B4): 0.8 µM; EC50 (Japanese Encephalitis): > 0.43 µM; CC50 (RD cells): > 200 µM; EC50 [3]: 0.35 ± 0.06 µM; EC50 (Enterovirus 71): 0.9 ± 0.3 µM; CC50 (MDCK): > 100 µM; CC50 (Vero 76; [4]): 52 µM; CC50 (Vero 76; [5]): 10 µM; EC50 (Echovirus 9): 0.6 µM; CC50 (Vero): 9.9 µM; EC50 (Coxsackievirus B1): 0.9 ± 0.3 µM; EC50 (Echovirus 30): 0.5 µM; EC50 (Venezuelan Encephalitis): 0.32 µM; EC50 (Chikungunya): 0.29 µM; EC50 (Measles): 8.9 µM; EC50 (Coxsackievirus B5): 1 ± 0.1 µM; CC50 (BHK): 37 µM |
| CC(C)n1ncc2c(C(=O)Nc3ccccc3F)cc(-c3cccs3)nc21 [JX-001] | > 4.8 | 4.7 | 2.4 | 2.6 ± 0.9 | 3 | 2.3 ± 0.9 | 1.4 ± 0.6 | 12.5 | > 100 | 3.2 | 7 | 2.8 ± 0.4 | 0.5 ± 0.17 | 0.35 ± 0.05 µM | > 50 | 3.4 | 7 | > 100 | > 39 | > 33 | EC50 (Echovirus 11): 1.5 ± 0.4 µM; EC50 (Rabies): > 100 µM; EC50 (Coxsackievirus B4): 2.3 µM; EC50 (Japanese Encephalitis): > 0.014 µM; CC50 (RD cells): 200 µM; EC50 [3]: 0.33 ± 0.05 µM; EC50 (Enterovirus 71): 1.8 ± 0.5 µM; CC50 (MDCK): > 100 µM; CC50 (Vero 76; [4]): 50 µM; CC50 (Vero 76; [5]): 3.3 µM; EC50 (Echovirus 9): 2.1 ± 1.2 µM; CC50 (Vero): 4.8 µM; EC50 (Coxsackievirus B1): 2.4 ± 0.2 µM; EC50 (Echovirus 30): 1.2 µM; EC50 (Venezuelan Encephalitis): > 0.98 µM; EC50 (Chikungunya): 0.31 µM; EC50 (Measles): > 4 µM; EC50 (Coxsackievirus B5): 2.3 µM; CC50 (BHK): > 33 µM |
| CC(C)n1ncc2c(C(=O)Nc3ccc(F)cc3F)cc(-c3cccs3)nc21 [JX-008] | 45 | > 100 | 2.4 | 2.3 ± 0.8 | 1.5 | 1.9 ± 0.7 | 1.4 ± 0.5 | > 200 | > 100 | 68 | > 25 | 2.8 ± 0.4 | 0.4 ± 0.17 | 0.33 ± 0.06 µM | > 77 | > 100 | > 25 | 70 | 23 | > 38 | CC50 (LLC cells): > 200 µM; EC50 (Echovirus 11): 1.4 ± 0.4 µM; EC50 (Rabies): > 100 µM; EC50 (Coxsackievirus B4): 2.3 µM; EC50 (Japanese Encephalitis): > 0.44 µM; CC50 (RD cells): 100 µM; EC50 [3]: 0.28 ± 0.08 µM; EC50 (Enterovirus 71): 1.6 ± 0.4 µM; CC50 (MDCK): > 100 µM; CC50 (Vero 76; [4]): 77 µM; CC50 (Vero 76; [5]): > 100 µM; EC50 (Echovirus 9): 1.5 ± 1 µM; CC50 (Vero): 50 µM; EC50 (Coxsackievirus B1): 2.3 µM; EC50 (Echovirus 30): 0.8 µM; EC50 (Venezuelan Encephalitis): > 0.48 µM; EC50 (Chikungunya): > 0.66 µM; EC50 (Measles): 34 µM; EC50 (Coxsackievirus B5): 2.3 µM; CC50 (BHK): 38 µM |
